Our source for the IC50 values is patent US20110178053A1, “AZACARBOLINE DERIVATIVES, PREPARATION METHOD THEREOF AND THERAPEUTIC USE OF SAME” (SANOFI-AVENTIS, priority 2008, published 2011).

A value given as a limit tells only on which side of the number the result lay.

What all share (assay type): biochemical
One assay addresses T1, Pim-3 (Homo sapiens, UniProt Q86V86).
T1 construct: His6-labelled recombinant full-length human Pim-1, Pim-2 or Pim-3 protein; His6; made in house
Nature of the assay: TR-FRET assay, Pim-3 kinase (phosphorylation of Bad Ser112). The following applies: TR-FRET; ATP 40 μM; read-out: IC50 Pim3. As for the experimental part:
(§1) In order to determine the inhibition of activation of Pim kinases, the compounds of the invention are tested in accordance with a routinely used in vitro TR-FRET assay (Time-Resolved Fluorescence Resonance Energy Transfer). […] For the assay, the following reagents are used:
(§2) Pim kinase—His6-labelled recombinant full-length human Pim-1, Pim-2 or Pim-3 protein (prepared according to J. Mol. Biol. (2005) 348, 183-193); Bad—His6-labelled recombinant full-length human Bad protein (prepared according to J. Mol. Biol. (2005) 348, 183-193); α-His6-APC—murine monoclonal antibody conjugated to allophycocyanin SureLight™ directed against the His6 label (Perkin-Elmer, No. AD0059H, Waltham, Mass., United States); • β-P˜Bad-Eu—murine monoclonal antibody (Cell Signaling Technology #9296B, Danvers, Mass., United States) directed against phosphoBad (Ser112) (7E11) custom-labelled by Perkin-Elmer with the reagent LANCE™ Eu-W1024.
(§3) The assay is based on Perkin-Elmer's LANCE™ technology: the Eu-labelled antibody binds to phospho-Ser112 and generates a TR-FRET signal by interaction with the APC-labelled antibody directed against His6, bound to the His6 label of Bad. The TR-FRET signal is detected using a SpectraMax M5 plate reader (Molecular Devices) with the following settings: λex=340 nm, λem1=615 nm, λem2=665 nm. The ratio of the fluorescence signal at 665 nm to the fluorescence signal at 615 nm is used as the signal reading for the IC50 (calculation is based on the 4-parameter logistic model). The assay is performed in a 384-well format; the liquid manipulations are performed using a Beckman 3000 liquid manipulations station. The test compounds are tested at 10 concentration points in duplicate; the highest compound concentration is typically equal to 30 μM. The ATP concentration is equal to 40 μM, which is equivalent to the apparent KM value.
A general note: In TR-FRET formats the signal depends on donor and acceptor labels being close together.

The next assay concerns the target T2, Pim-1 (Homo sapiens, UniProt P11309).
T2 construct: His6-labelled recombinant full-length human Pim-1, Pim-2 or Pim-3 protein; His6; made in house
The experiment in a line: TR-FRET assay, Pim-1 kinase (phosphorylation of Bad Ser112). The following applies: TR-FRET; ATP 40 μM; read-out: IC50 Pim1. As for the experimental part:
as §1, §2, §3

A further assay deals with T3, Pim-2 (Homo sapiens, UniProt Q9P1W9).
T3 construct: His6-labelled recombinant full-length human Pim-1, Pim-2 or Pim-3 protein; His6; made in house
T3 sequence (Q9P1W9 whole entry): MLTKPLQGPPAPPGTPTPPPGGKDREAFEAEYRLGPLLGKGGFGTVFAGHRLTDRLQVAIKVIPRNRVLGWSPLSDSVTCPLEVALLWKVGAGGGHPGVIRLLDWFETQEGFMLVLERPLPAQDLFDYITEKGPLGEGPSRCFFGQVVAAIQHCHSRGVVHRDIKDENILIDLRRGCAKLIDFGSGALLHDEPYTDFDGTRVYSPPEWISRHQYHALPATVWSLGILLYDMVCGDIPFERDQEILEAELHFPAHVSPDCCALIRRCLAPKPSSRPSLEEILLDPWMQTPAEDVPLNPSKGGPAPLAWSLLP
The experiment in a line: TR-FRET assay, Pim-2 kinase (phosphorylation of Bad Ser112). The following applies: TR-FRET; ATP 40 μM; read-out: IC50 Pim2. As for the experimental part:
as §1, §2, §3

T2 sequence (P11309 whole entry): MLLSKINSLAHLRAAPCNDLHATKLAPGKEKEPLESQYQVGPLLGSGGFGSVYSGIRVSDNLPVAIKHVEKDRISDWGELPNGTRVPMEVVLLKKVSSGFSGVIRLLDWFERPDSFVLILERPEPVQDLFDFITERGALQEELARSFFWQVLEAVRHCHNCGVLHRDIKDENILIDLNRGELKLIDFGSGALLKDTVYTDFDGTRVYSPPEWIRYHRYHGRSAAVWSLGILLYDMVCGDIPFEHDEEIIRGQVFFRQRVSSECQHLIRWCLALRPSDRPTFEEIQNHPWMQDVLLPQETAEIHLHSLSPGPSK

By IC50 is commonly meant the concentration that inhibits the measured activity by half. Regarding `COc1ccc(-c2c(F)cnc3[nH]c4cnc(-c5cccnc5)cc4c23)cn1` [Example 52, 3-fluoro-4-(6-methoxypyrid-3-yl)-6-(pyrid-3-yl)-9H-pyrrolo[2,3-b:5,4-c′]-dipyridine], the IC50 at Pim-3 is 100 to 1000 nM; on Pim-1, 100 to 1000 nM; at Pim-2, above 5000 nM.
Turning to `CS(=O)(=O)Nc1cccc(-c2c(F)cnc3[nH]c4cnc(-c5cccnc5)cc4c23)c1` [Example 53, N-{3-[3-fluoro-6-(pyrid-3-yl)-9H-pyrrolo[2,3-b:5,4-c′]-dipyrid-4-yl]phenyl}-methanesulfonamide], the IC50 lay within 100 to 1000 nM at Pim-3, 1 to 100 nM at Pim-1 and 1000 to 5000 nM on Pim-2.
As to `Cc1csc(-c2c(F)cnc3[nH]c4cnc(-c5cccnc5)cc4c23)c1` [Example 54, 3-fluoro-4-(4-methylthiophen-2-yl)-6-(pyrid-3-yl)-9H-pyrrolo[2,3-b:5,4-c′]dipyridine], the IC50 on Pim-3 is 100 to 1000 nM; on Pim-1 it was 1 to 100 nM; on Pim-2, above 5000 nM.
The corresponding values for `Fc1cnc2[nH]c3cnc(-c4cccnc4)cc3c2c1-c1ccc2cc[nH]c2c1` [Example 55] are 100 to 1000 nM, 1 to 100 nM and 1000 to 5000 nM.
On the same counts, the results for `Cc1cscc1-c1c(F)cnc2[nH]c3cnc(-c4cccnc4)cc3c12` [Example 57, 3-fluoro-4-(4-methyl-thiophen-3-yl)-6-(pyrid-3-yl)-9H-pyrrolo[2,3-b:5,4-c′]-dipyridine] are 100 to 1000 nM, 1000 to 5000 nM and 1000 to 5000 nM.
The corresponding values for `CN(C)c1cccc(-c2c(F)cnc3[nH]c4cnc(-c5cccnc5)cc4c23)c1` [Example 58, 3-[3-fluoro-6-(pyrid-3-yl)-9H-pyrrolo[2,3-b:5,4-c′]dipyrid-4-yl]-N,N-dimethylaniline] are 1000 to 5000 nM, 1000 to 5000 nM and above 5000 nM.
For the compound `Cn1ccc2cc(-c3c(F)cnc4[nH]c5cnc(-c6cccnc6)cc5c34)ccc21` [Example 59, 3-fluoro-4-(1-methyl-1H-indol-5-yl)-6-(pyrid-3-yl)-9H-pyrrolo[2,3-b:5,4-c′]-dipyridine], the values for the concentration for half-maximal inhibition (IC50) at Pim-3, on Pim-1 and at Pim-2 were 100 to 1000 nM, 1 to 100 nM and above 5000 nM, respectively.
On the same counts, the results for `Cn1cc(-c2c(F)cnc3[nH]c4cnc(-c5cccnc5)cc4c23)cn1` [Example 60, 3-fluoro-4-(1-methyl-1H-pyrazol-4-yl)-6-(pyrid-3-yl)-9H-pyrrolo[2,3-b:5,4-c′]-dipyridine] are 100 to 1000 nM, 1 to 100 nM and 1000 to 5000 nM.
On the same counts, the results for `CC(=O)NCc1ccc(-c2c(F)cnc3[nH]c4cnc(-c5cccnc5)cc4c23)cc1` [Example 61, N-{4-[3-fluoro-6-(pyrid-3-yl)-9H-pyrrolo[2,3-b:5,4-c′]-dipyrid-4-y]benzyl}-acetamide] are 1 to 100 nM, 1 to 100 nM and 1000 to 5000 nM.
On the same counts, the results for `CCOc1ncccc1-c1c(F)cnc2[nH]c3cnc(-c4cccnc4)cc3c12` [Example 64, 4-(2-ethoxypyrid-3-yl)-3-fluoro-6-(pyrid-3-yl)-9H-pyrrolo[2,3-b:5,4-c′]dipyridine] are 1000 to 5000 nM, 100 to 1000 nM and above 5000 nM.
For the compound `O=C(O)CCC(=O)Nc1cccc(-c2c(F)cnc3[nH]c4cnc(-c5cccnc5)cc4c23)c1` [Example 65, acide 4-({3-[3-fluoro-6-(pyrid-3-yl)-9H-pyrrolo[2,3-b:5,4-c′]-dipyrid-4-yl]-phenyl}amino)-4-oxobutanoic acid], the half-inhibitory concentration (IC50) at Pim-3 was 1000 to 5000 nM; at Pim-1 it was 100 to 1000 nM; on Pim-2, above 5000 nM.
On the same counts, the results for `Cn1nccc1-c1c(F)cnc2[nH]c3cnc(-c4cccnc4)cc3c12` [Example 67, 3-fluoro-4-(1-methyl-1H-pyrazol-5-yl)-6-(pyrid-3-yl)-9H-pyrrolo[2,3-b:5,4-c']-dipyridine] are 1000 to 5000 nM, 1000 to 5000 nM and above 5000 nM.
The corresponding values for `CC(C)C(=O)Nc1ccc(-c2c(F)cnc3[nH]c4cnc(-c5cccnc5)cc4c23)cc1` [Example 68, N-{4-[3-fluoro-6-(pyrid-3-yl)-9H-pyrrolo[2,3-b:5,4-c']-dipyrid-4-yl]phenyl}-2-methylpropanamide] are 100 to 1000 nM, 1 to 100 nM and 1000 to 5000 nM.
Take `Fc1cnc2[nH]c3cnc(-c4cccnc4)cc3c2c1-c1cccnc1` [Example 69, 3-fluoro-4,6-di(pyrid-3-yl)-9H-pyrrolo[2,3-b:5,4-c′]dipyridine]: the IC50 was 100 to 1000 nM at Pim-3, 100 to 1000 nM at Pim-1 and above 5000 nM at Pim-2.
As to `CS(=O)(=O)Nc1ccccc1-c1c(F)cnc2[nH]c3cnc(-c4cccnc4)cc3c12` [Example 70, N-{2-[3-fluoro-6-(pyrid-3-yl)-9H-pyrrolo[2,3-b:5,4-c′]-dipyrid-4-yl]phenyl}-methanesulfonamide], the IC50 at Pim-3 is above 5000 nM; on Pim-1, 1000 to 5000 nM; at Pim-2 it was above 5000 nM.
Turning to `Fc1cnc2[nH]c3cnc(-c4cccnc4)cc3c2c1-c1cn[nH]c1` [Example 71, 3-fluoro-4-(1H-pyrazol-4-yl)-6-(pyrid-3-yl)-9H-pyrrolo[2,3-b:5,4-c′]-dipyridine], the IC50 at Pim-3 is 100 to 1000 nM; at Pim-1, 1 to 100 nM; on Pim-2 it was 100 to 1000 nM.
With `CS(=O)(=O)c1cccc(-c2c(F)cnc3[nH]c4cnc(-c5cccnc5)cc4c23)c1` [Example 72, 3-fluoro-4-[3-(methylsulfonyl)phenyl]-6-(pyrid-3-yl)-9H-pyrrolo[2,3-b:5,4-c′]dipyridine], the IC50 was 1000 to 5000 nM at Pim-3, 100 to 1000 nM on Pim-1 and above 5000 nM at Pim-2.
On the same counts, the results for `COc1ncc(-c2c(F)cnc3[nH]c4cnc(-c5cccnc5)cc4c23)cn1` [Example 73, 3-fluoro-4-(2-methoxypyrimidin-5-yl)-6-(pyrid-3-yl)-9H-pyrrolo[2;3-b:5,4-c′]dipyridine] are 1000 to 5000 nM, 100 to 1000 nM and above 5000 nM.
In the case of `Nc1ccc(-c2c(F)cnc3[nH]c4cnc(-c5cccnc5)cc4c23)cn1` [Example 74, 5-[3-fluoro-6-(pyrid-3-yl)-9H-pyrrolo[2,3-b,-c′]dipyrid-4-yl]pyrid-2-amine], the IC50 at Pim-3 was in the range of 100 to 1000 nM; on Pim-1, 100 to 1000 nM; on Pim-2 it was 1000 to 5000 nM.
Consider `CC(C)N1CCN(c2c(F)cnc3[nH]c4cnc(-c5cccnc5)cc4c23)CC1` [Example 75, 3-fluoro-4-[4-(propan-2-yl)-piperazin-1-yl]-6-(pyrid-3-yl)-9H-pyrrolo[2,3-b:5,4-c′]dipyridine], for which the IC50 lay in the range of 100 to 1000 nM on Pim-3, 1 to 100 nM at Pim-1 and 1000 to 5000 nM on Pim-2.
On the same counts, the results for `Fc1cnc2[nH]c3cnc(-c4cccnc4)cc3c2c1N1CCCCC1` [Example 76, 3-fluoro-4-(piperid-1-yl)-6-(pyrid-3-yl)-9H-pyrrolo[2,3-b:5,4-c′]dipyridine] are 1 to 100 nM, 1 to 100 nM and 100 to 1000 nM.
On the same counts, the results for `CN1CCC(N2CCN(c3c(F)cnc4[nH]c5cnc(-c6cccnc6)cc5c34)CC2)CC1` [Example 77, 3-fluoro-4-[4-(1-methylpiperid-4-yl)piperazin-1-yl]-6-(pyrid-3-yl)-9H-pyrrolo-[2,3-b:5,4-c′]-dipyridine] are 100 to 1000 nM, 100 to 1000 nM and above 5000 nM.
Turning to `Fc1cnc2[nH]c3cnc(-c4cccnc4)cc3c2c1N1CCC(N2CCOCC2)CC1` [Example 78, 3-fluoro-4-[4-(morpholin-4-yl)piperid-1-yl]-6-(pyrid-3-yl)-9H-pyrrolo[2,3-b:5,4-c′]-dipyridine], the IC50 is 100 to 1000 nM at Pim-3, 1 to 100 nM on Pim-1 and above 5000 nM on Pim-2.
Consider `CN1CCCN(c2c(F)cnc3[nH]c4cnc(-c5cccnc5)cc4c23)CC1` [Example 80, 3-fluoro-4-(4-methyl-1,4-diazepan-1-yl)-6-(pyrid-3-yl)-9H-pyrrolo[2,3-b:5,4-c′]dipyridine], for which the half-inhibitory concentration (IC50) was 100 to 1000 nM at Pim-3, 100 to 1000 nM at Pim-1 and above 5000 nM on Pim-2.
For `OCCN1CCN(c2c(F)cnc3[nH]c4cnc(-c5cccnc5)cc4c23)CC1` [Example 81, 2-{4-[3-fluoro-6-(pyrid-3-yl)-9H-pyrrolo[2,3-b:5,4-c′]dipyrid-4-yl]piperazin-1-yl}ethanol], the IC50 at Pim-3 lay within 100 to 1000 nM; at Pim-1 it was 1 to 100 nM; on Pim-2, 1000 to 5000 nM.
